Active and inactive are the calls of the source. The calls are words filed in the database; no cut-off is given here.
How the values were obtained:
DNA = experiment: Binding affinity to Escherichia coli supercoiled pBR322 DNA assessed as DNA intercalation at 50 uM after 1 hr by ethidium bromide staining-based agarose gel electrophoresis analysis; type: nucleic-acid assay
[1] = biological target: T1, DNA topoisomerase 1 (Homo sapiens) (UniProt P11387); experiment: Inhibition of topoisomerase 1 (unknown origin) at 50 uM using pBR322 DNA as substrate preincubated for 30 mins followed by substrate addition and measured after 30 mins by ethidium bromide staining-based agarose gel electrophoresis analysis
T1 sequence (whole entry): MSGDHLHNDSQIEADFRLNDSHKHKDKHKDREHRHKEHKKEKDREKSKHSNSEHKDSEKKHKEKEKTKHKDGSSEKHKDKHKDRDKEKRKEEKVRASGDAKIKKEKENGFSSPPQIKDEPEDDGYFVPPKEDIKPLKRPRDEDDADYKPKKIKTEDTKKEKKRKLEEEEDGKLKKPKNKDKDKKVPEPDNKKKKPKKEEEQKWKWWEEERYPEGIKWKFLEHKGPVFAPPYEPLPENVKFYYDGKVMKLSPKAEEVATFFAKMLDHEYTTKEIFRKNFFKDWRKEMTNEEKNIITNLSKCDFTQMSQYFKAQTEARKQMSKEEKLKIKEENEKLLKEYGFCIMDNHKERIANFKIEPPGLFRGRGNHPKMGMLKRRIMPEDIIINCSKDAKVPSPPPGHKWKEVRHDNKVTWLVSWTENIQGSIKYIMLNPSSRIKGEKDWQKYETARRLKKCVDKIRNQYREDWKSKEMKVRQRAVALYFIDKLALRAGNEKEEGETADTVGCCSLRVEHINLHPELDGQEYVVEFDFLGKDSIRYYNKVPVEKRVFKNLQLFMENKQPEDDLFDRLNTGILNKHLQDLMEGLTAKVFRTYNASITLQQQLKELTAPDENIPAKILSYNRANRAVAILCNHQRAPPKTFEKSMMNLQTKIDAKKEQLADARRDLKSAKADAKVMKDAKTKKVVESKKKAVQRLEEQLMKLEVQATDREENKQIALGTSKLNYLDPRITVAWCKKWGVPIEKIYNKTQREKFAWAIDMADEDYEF

[2] = biological target: T1, DNA topoisomerase 1 (Homo sapiens); experiment: Inhibition of topoisomerase 1 (unknown origin) using pBR322 DNA as substrate assessed as reduction in pBR322 DNA unwinding at 50 uM after 30 mins by ethidium bromide staining-based agarose gel electrophoresis analysis
T-24 = experiment: Antiproliferative activity against human T24 cells after 48 hrs by MTT assay; type: functional, cell-based; details: T-24, 48 h
HepG2 = experiment: Antiproliferative activity against human HepG2 cells after 48 hrs by MTT assay; type: functional, cell-based; details: HepG2, 48 h
MGC-803 [3] = experiment: Antiproliferative activity against human MGC803 cells after 48 hrs by MTT assay; type: functional, cell-based; details: MGC-803, 48 h
A549 = experiment: cells; details: Homo sapiens, A549, 48 h
HeLa = experiment: cells; details: Homo sapiens, 48 h
WI-38 = experiment: Antiproliferative activity against human WI38 cells after 48 hrs by MTT assay; type: cell-based; details: WI-38, 48 h
MGC-803 [4] = experiment: Antitumor activity against human MGC803 cells xenografted in BALB/C mouse assessed as tumor growth inhibition at 6 mg/kg, ip dosed every other day for 16 days relative to control; type: functional; details: MGC-803, ip, read-out: TGI

CN(C)CCCNc1nc2ccccc2nc1-c1nc2c(ccc3ccccc32)o1
Activity (DNA): inactive | inhibition [1]: inactive | inhibition [2]: inactive | IC50 (T-24): 5.75 µM | IC50 (HepG2): 10.8 µM | IC50 (MGC-803 [3]): 11.3 µM | IC50 (A549): 4.66 µM | IC50 (HeLa): 10.5 µM | IC50 (WI-38): 16.4 µM

c1ccc2nc(-c3nc4ccccc4[nH]3)c(NCCCN3CCOCC3)nc2c1
IC50 (T-24): > 100 µM | IC50 (HepG2): > 100 µM | IC50 (MGC-803 [3]): > 100 µM | IC50 (A549): > 100 µM | IC50 (HeLa): > 100 µM | IC50 (WI-38): > 100 µM

c1ccc2nc(-c3nc4ccccc4s3)c(NCCN3CCOCC3)nc2c1
IC50 (T-24): > 100 µM | IC50 (HepG2): > 100 µM | IC50 (MGC-803 [3]): > 100 µM | IC50 (A549): > 100 µM | IC50 (HeLa): > 100 µM | IC50 (WI-38): > 100 µM

c1ccc2nc(-c3nc4ccccc4o3)c(NCCCN3CCOCC3)nc2c1
IC50 (T-24): > 100 µM | IC50 (HepG2): > 100 µM | IC50 (MGC-803 [3]): > 100 µM | IC50 (A549): > 100 µM | IC50 (HeLa): > 100 µM | IC50 (WI-38): > 100 µM

CC[C@@]1(O)C(=O)OCc2c1cc1n(c2=O)Cc2cc3ccccc3nc2-1 [CAMPTOTHECIN]
IC50 (T-24): 6.8 µM | IC50 (HepG2): 4.79 µM | IC50 (MGC-803 [3]): 2.96 µM | IC50 (A549): 4.43 µM | IC50 (HeLa): 6.51 µM | inhibition in vivo at 6 mg/kg (MGC-803 [4]): 51.5% | IC50 (WI-38): 8.37 µM

c1ccc2nc(-c3nc4ccccc4[nH]3)c(NCCN3CCOCC3)nc2c1
IC50 (T-24): > 100 µM | IC50 (HepG2): > 100 µM | IC50 (MGC-803 [3]): > 100 µM | IC50 (A549): > 100 µM | IC50 (HeLa): > 100 µM | IC50 (WI-38): > 100 µM

c1ccc2nc(-c3nc4ccccc4s3)c(NCCCN3CCOCC3)nc2c1
IC50 (T-24): > 100 µM | IC50 (HepG2): > 100 µM | IC50 (MGC-803 [3]): > 100 µM | IC50 (A549): > 100 µM | IC50 (HeLa): > 100 µM | IC50 (WI-38): > 100 µM

c1ccc2nc(-c3nc4ccccc4o3)c(NCCN3CCOCC3)nc2c1
IC50 (T-24): > 100 µM | IC50 (HepG2): > 100 µM | IC50 (MGC-803 [3]): > 100 µM | IC50 (A549): > 100 µM | IC50 (HeLa): > 100 µM | IC50 (WI-38): > 100 µM

CCN(CC)CCCNc1nc2ccccc2nc1-c1nc2c(ccc3ccccc32)o1
Activity (DNA): inactive | inhibition [1]: inactive | inhibition [2]: inactive | IC50 (T-24): 8 µM | IC50 (HepG2): 12.7 µM | IC50 (MGC-803 [3]): 11.5 µM | IC50 (A549): 11.3 µM | IC50 (HeLa): 10.8 µM | IC50 (WI-38): 14.7 µM

From ChEMBL document CHEMBL4316587, “Identification of 3-(benzazol-2-yl)quinoxaline derivatives as potent anticancer compounds: Privileged structure-based design, synthesis, and bioactive evaluation in vitro and in vivo” (Eur J Med Chem, 2019)
